Results reported in US6610712B2, “Aryloxy piperidinyl derivatives for the treatment of depression” (Wyeth, priority 2000, dated 2003).
Structures can show the parent of a compound that is named as a salt.

Columns and labels:
5-HT1A = target: T1, 5-HT1A (Homo sapiens, UniProt P08908); assay: 5-HT1A receptor binding, [3H]DPAT; parameters: 5-HT1A [3H]DPAT, % at single concentration: dose or concentration left out as unconfirmed; settings: radioligand [3H]DPAT
T1 sequence (P08908 1-422): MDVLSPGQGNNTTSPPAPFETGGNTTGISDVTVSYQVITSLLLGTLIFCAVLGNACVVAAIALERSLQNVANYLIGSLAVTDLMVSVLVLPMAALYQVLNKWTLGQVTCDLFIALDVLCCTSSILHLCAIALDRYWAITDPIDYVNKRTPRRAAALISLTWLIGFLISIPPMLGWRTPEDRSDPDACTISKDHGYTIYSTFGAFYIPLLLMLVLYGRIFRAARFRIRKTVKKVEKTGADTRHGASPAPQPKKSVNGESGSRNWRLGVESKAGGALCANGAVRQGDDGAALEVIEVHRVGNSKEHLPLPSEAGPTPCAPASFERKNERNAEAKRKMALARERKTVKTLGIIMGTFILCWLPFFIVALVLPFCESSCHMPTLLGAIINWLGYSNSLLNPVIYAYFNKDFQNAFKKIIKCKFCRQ

Serotonin Transporter = Serotonin Transporter (Homo sapiens, UniProt P31645); assay: Serotonin transporter binding, [3H]paroxetine; settings: radioligand [3H]paroxetine
Serotonin Transporter, sequence (P31645 whole entry): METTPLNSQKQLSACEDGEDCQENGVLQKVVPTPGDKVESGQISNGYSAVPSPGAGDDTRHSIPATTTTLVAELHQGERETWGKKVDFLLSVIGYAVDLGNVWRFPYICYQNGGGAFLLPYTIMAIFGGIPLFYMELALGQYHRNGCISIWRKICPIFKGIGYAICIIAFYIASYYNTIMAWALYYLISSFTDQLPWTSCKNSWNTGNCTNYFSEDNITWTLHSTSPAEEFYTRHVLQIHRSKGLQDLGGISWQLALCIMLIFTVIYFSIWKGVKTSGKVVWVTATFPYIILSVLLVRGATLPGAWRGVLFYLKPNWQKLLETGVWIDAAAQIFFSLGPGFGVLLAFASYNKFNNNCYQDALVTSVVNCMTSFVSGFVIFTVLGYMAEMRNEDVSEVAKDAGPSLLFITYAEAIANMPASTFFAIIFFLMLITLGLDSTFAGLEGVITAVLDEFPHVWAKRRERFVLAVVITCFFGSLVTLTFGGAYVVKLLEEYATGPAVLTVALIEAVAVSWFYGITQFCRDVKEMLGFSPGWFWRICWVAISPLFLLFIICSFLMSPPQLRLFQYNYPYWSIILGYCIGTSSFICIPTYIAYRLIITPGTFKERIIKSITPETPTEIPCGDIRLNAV

Molecule	melting point	Ki (5-HT1A)	Ki (Serotonin Transporter)	5-HT1A [3H]DPAT, % at single concentration (5-HT1A)
COc1ccccc1OCCN1CCC(Cc2c[nH]c3ccc(F)cc23)CC1 (as salt: oxalate) (hydrate or solvate) [Example 1, 5-Fluoro-3-{1-[2-(2-methoxyphenoxy)ethyl]-piperidin-4-ylmethyl}-1H-indole]	91 °C	–	–	–
Fc1ccc2[nH]cc(C3=CCN(CCOc4cccc5c4OCCO5)CC3)c2c1 (as salt: oxalate) [Example 5, 5-Fluoro-3-{1-[2-(2,3-dihydro-benzo[1,4]dioxan-5-yloxy)-ethyl]-1,2,3,6-tetrahydro-pyridin-4-yl}-1H-indole]	195 to 198 °C	–	–	–
C1=C(c2c[nH]c3ccccc23)CCN(CCOc2cccc3c2OCCO3)C1 [Example 4, 3-{1-[2-(2,3-Dihydro-benzo[1,4]dioxan-5-yloxy)-ethyl]-1,2,3,6-tetrahydro-pyridin-4-yl}-1H-indole]	–	78.3 nM	0.17 nM	–
C1=C(c2c[nH]c3ccccc23)CCN(CCOc2cccc3c2OCCO3)C1 (as salt: oxalate) [Example 4, 3-{1-[2-(2,3-Dihydro-benzo[1,4]dioxan-5-yloxy)-ethyl]-1,2,3,6-tetrahydro-pyridin-4-yl}-1H-indole]	85 to 88 °C	–	–	–
COc1ccccc1OCCN1CCC(Cc2c[nH]c3ccc(F)cc23)CC1 [Example 1, 5-Fluoro-3-{1-[2-(2-methoxyphenoxy)ethyl]-piperidin-4-ylmethyl}-1H-indole]	–	180 nM	0.35 nM	–
6-Fluoro-3-{1-[2-(2,3-dihydro-benzo[1,4]dioxan-5-yloxy)-ethyl]-1,2,3,6-tetrahydro-pyridin-4-yl}-1H-indole [Example 6]	–	83.7 nM	0.15 nM	–
Fc1ccc2[nH]cc(CC3CCN(CCOc4cccc5c4OCCO5)CC3)c2c1 (as salt: fumarate) (hydrate or solvate) [Example 2, 5-Fluoro-3-{1-[2-(2,3-dihydrobenzo[1,4]dioxin-5-yloxy)ethyl]-piperidin-4-ylmethyl}-1H-indole]	157 to 159 °C	–	–	–
Fc1ccc2[nH]cc(CC3CCN(CCOc4ccc5c(c4)CCC5)CC3)c2c1 [Example 3, 5-Fluoro-3-{1-[2-(indan-5-yloxy)-ethyl]-piperidin-4-ylmethyl}-1H-indole]	–	–	2.24 nM	0% @ 0.1 M
Fc1ccc2[nH]cc(CC3CCN(CCOc4ccc5c(c4)CCC5)CC3)c2c1 (as salt: hydrochloride) (hydrate or solvate) [Example 3, 5-Fluoro-3-{1-[2-(indan-5-yloxy)-ethyl]-piperidin-4-ylmethyl}-1H-indole]	150 to 152 °C	–	–	–
Fc1ccc2[nH]cc(CC3CCN(CCOc4cccc5c4OCCO5)CC3)c2c1 [Example 2, 5-Fluoro-3-{1-[2-(2,3-dihydrobenzo[1,4]dioxin-5-yloxy)ethyl]-piperidin-4-ylmethyl}-1H-indole]	–	168 nM	0.011 nM	–
Fc1ccc2[nH]cc(C3=CCN(CCOc4cccc5c4OCCO5)CC3)c2c1 [Example 5, 5-Fluoro-3-{1-[2-(2,3-dihydro-benzo[1,4]dioxan-5-yloxy)-ethyl]-1,2,3,6-tetrahydro-pyridin-4-yl}-1H-indole]	–	83.3 nM	1.17 nM	–
